Read-outs that look alike come from different tables or passages of the source. Peptide text beside a SMILES is read from it.
Assays:
[1] = test system: Influenza A Virus (H3N2)
[2] = test system: Murine Norovirus-1; experiment: microbe, parasite or virus in culture; conditions: Norwalk virus, in Mus musculus, 3 h, read-out: IC50 Murine Norovirus-1/Raw 246.7
[3] = test system: Influenza A Virus (H1N1)
[4] = test system: Influenza A Virus (H3N2); experiment: microbe, parasite or virus in culture; conditions: H3N2, MDCK, 3 h, read-out: IC50 Influenza A Virus (H3N2)/MDCK
[5] = test system: H1N1; experiment: Transmission electron microscopy of treated virus; design: species or system influenza virus H1N1 A/PR/8/34; conditions: TEM, 2 h exposure; untreated 120 nm
Procedure: (§1) The viruses were exposed to the peptide/mimics for 2 h at 37 °C. Following this, 10 µL of the treated mixture was applied onto a glow-discharged carbon-coated 200 mesh copper grid and left to evaporate for 5 min. Subsequently, the sample was stained with 2% phosphotungstic acid (pH 4.5) for 1 min to enhance contrast. After air-drying, the grids were examined using an FEI Tecnai G2 20 transmission electron microscope (TEM).

[6] = test system: H3N2 virus; experiment: Transmission electron microscopy of treated virus; design: species or system influenza virus H3N2 A/Hong Kong/8/68; conditions: 2 h exposure
Procedure: as §1

[7] = test system: Human Adenovirus-5; experiment: microbe, parasite or virus in culture; conditions: Human mastadenovirus C, Vero, 3 h, read-out: IC50 Human Adenovirus-5/Vero
[8] = test system: Influenza A Virus (H1N1); experiment: microbe, parasite or virus in culture; conditions: H1N1, MDCK, 3 h, read-out: IC50 Influenza A Virus (H1N1)/MDCK
[9] = in vitro; conditions: dog
[10] = test system: Human Adenovirus-5
[11] = test system: Murine Norovirus-1
[12] = test system: MDCK cells; conditions: dog
[13] = test system: Vero cells; conditions: African green monkey
[14] = test system: adenovirus; conditions: 111 µM LL-37 ref 60; cited from earlier work
[15] = Circular dichroism conformational analysis; assay type: physicochemical; conditions: 125, 250, 500 µM
Procedure: Circular dichroism (CD) analysis was conducted using the Jasco J-1500 spectropolarimeter to assess the secondary structure of peptides and mimics. The samples were placed in a quartz cuvette with a path length of 0.1 cm (Fisher brand, Thermo Fisher Scientific Aust Pty Ltd.). Spectra were recorded in the range of 185–260 nm at a scan speed of 200 nm/min, averaging 4 scans. The impact of the solvents milliQ water or 30 mM SDS on Mel4 and mimic 758 was evaluated at three concentrations: 500 µM, 250 µM, and 125 µM. Data were averaged, and the spectrum of a sample-free control was subtracted.

[16] = in vitro; conditions: African green monkey
[17] = read-out: IC50 Human Adenovirus-5/Vero

Row | SMILES | SI Influenza A Virus (H3N2)/MDCK [1] | IC50 [2] [µM] | SI Influenza A Virus (H1N1)/MDCK [3] | IC50 [4] [µM] | IC50 [7] [µM] | IC50 [8] [µM] | CC50 ([9]; CC50 (H1N1/MDCK)) [µM] | CC50 ([9]; CC50 (H3N2/MDCK)) [µM] | further results
1 | NCCNC(=O)C(Cc1c[nH]c2ccccc12)NC(=O)c1cc(-c2ccc3ccccc3c2)ccc1N (stereo not drawn) [compound 610] | 9 | > 62.5 | 14.1 | 3.7 | > 62.5 | 2.35 | 33.3 | 33.3 | average particle size of the virus after treatment [5]: 48 nm; effect on virus particle (TEM) [6]: reduction in size and disruption to the envelop and spike proteins
2 | NCCN=C(NCCN)NCCNC(=O)C(Cc1c[nH]c2ccccc12)NC(=O)c1cc(Br)ccc1NC(=O)c1ccc2ccccc2c1 (stereo not drawn) [compound 1083] | 9.05 | > 62.5 | 8.7 | 27.7 | 47.2 | 28.5 | 250 | 250 | IC50 [10, 17]: 45.1 µM
3 | NCCNC(=Nc1ccccc1)NCCNC(=O)C(Cc1ccccc1)NC(=O)c1cc(Br)ccc1NC(=O)c1ccc2ccccc2c1 (stereo not drawn) [compound 1096] | 1.9 | > 62.5 | 2.1 | 24 | > 62.5 | 22.2 | 47.2 | 47.2 | 
4 | NCCCCC(N)C(=O)NCCNC(=O)C(Cc1c[nH]c2ccccc12)NC(=O)c1cc(Br)ccc1NC(=O)c1ccc(-c2ccccc2)cc1 (stereo not drawn) [4-BIPL] | 1.2 |  | 1.2 |  |  |  |  |  | IC50 ([11]; read-out: IC50 Murine Norovirus-1/Raw 246.7): > 62.5 µM; IC50 [10, 17]: > 62.5 µM; IC50 ([1]; read-out: IC50 Influenza A Virus (H3N2)/MDCK): 10.4 µM; IC50 ([3]; read-out: IC50 Influenza A Virus (H1N1)/MDCK): 10.3 µM; CC50 [12]: 12.8 µM; CC50 [13]: 38.8 µM
5 | CC[C@H](C)[C@H](NC(=O)[C@H](CCCCN)NC(=O)[C@H](CCC(=O)O)NC(=O)[C@H](CCCCN)NC(=O)[C@H](CO)NC(=O)[C@H](CCCCN)NC(=O)[C@H](CCCNC(=N)N)NC(=O)[C@H](Cc1ccccc1)NC(=O)[C@H](Cc1ccccc1)NC(=O)[C@H](CC(=O)O)NC(=O)CNC(=O)[C@H](CC(C)C)NC(=O)[C@@H](N)CC(C)C)C(=O)NCC(=O)N[C@@H](CCCCN)C(=O)N[C@@H](CCC(=O)O)C(=O)N[C@@H](Cc1ccccc1)C(=O)N[C@@H](CCCCN)C(=O)N[C@@H](CCCNC(=N)N)C(=O)N[C@H](C(=O)N[C@H](C(=O)N[C@@H](CCC(N)=O)C(=O)N[C@@H](CCCNC(=N)N)C(=O)N[C@H](C(=O)N[C@@H](CCCCN)C(=O)N[C@@H](CC(=O)O)C(=O)N[C@@H](Cc1ccccc1)C(=O)N[C@@H](CC(C)C)C(=O)N[C@@H](CCCNC(=N)N)C(=O)N[C@@H](CC(N)=O)C(=O)N[C@@H](CC(C)C)C(=O)N[C@H](C(=O)N1CCC[C@H]1C(=O)N[C@@H](CCCNC(=N)N)C(=O)N[C@H](C(=O)N[C@@H](CCC(=O)O)C(=O)N[C@@H](CO)C(=O)O)[C@@H](C)O)C(C)C)[C@@H](C)CC)C(C)C)[C@@H](C)CC [LL-37, reference compound] |  |  |  |  |  |  |  |  | IC50 ([11]; 3 h): 4.2 µM; IC50 Human Adenovirus-5/Vero [10]: no activity; IC50 ([10]; 3 h): > 125 µM; IC50 ([1]; Virus, 3 h): > 500 µM; IC50 ([3]; Virus, 3 h): > 500 µM; effect on adenovirus [14]: no effect
6 | NCCNC(=Nc1ccccc1)NCCNC(=O)C(Cc1c[nH]c2ccccc12)NC(=O)c1cc(Br)ccc1NC(=O)c1ccc2ccccc2c1 (stereo not drawn) [compound 758] | 15.8 | > 62.5 | 11.9 | 9.3 | > 62.5 | 12.3 | 147 | 147 | secondary structure by CD in SDS ([15]; 30 mM SDS (membrane mimetic)): beta sheet-like structure; secondary structure by CD in water ([15]; milliQ water): beta sheet-like structure
7 | CC[C@H](C)[C@H](NC(=O)[C@H](Cc1c[nH]c2ccccc12)NC(=O)[C@H](CO)NC(=O)[C@@H](NC(=O)[C@H](CC(C)C)NC(=O)[C@@H](N)[C@@H](C)O)[C@@H](C)CC)C(=O)N[C@@H](CCCCN)C(=O)N[C@@H](CC(N)=O)C(=O)N[C@@H](CCCCN)C(=O)N[C@@H](CCCNC(=N)N)C(=O)N[C@@H](CCCCN)C(=O)N[C@@H](CCC(N)=O)C(=O)N[C@@H](CCCNC(=N)N)C(=O)N1CCC[C@H]1C(=O)N[C@@H](CCCNC(=N)N)C(=O)N[C@H](C(=O)N[C@@H](CO)C(=O)N[C@@H](CCCNC(=N)N)C(=O)N[C@@H](CCCNC(=N)N)C(=O)N[C@@H](CCCNC(=N)N)C(=O)N[C@@H](CCCNC(=N)N)C(=O)N[C@@H](CCCNC(=N)N)C(=O)N[C@@H](CCCNC(=N)N)C(=O)NCC(=O)NCC(=O)N[C@@H](CCCNC(=N)N)C(=O)N[C@@H](CCCNC(=N)N)C(=O)N[C@@H](CCCNC(=N)N)C(=O)N[C@@H](CCCNC(=N)N)C(=O)O)C(C)C [Melimine] (H-TLISWIKNKRKQRPRVSRRRRRRGGRRRR-OH) |  |  |  |  |  |  |  |  | IC50 ([11]; 3 h): 4.8 µM; IC50 ([10]; 3 h): > 125 µM; IC50 ([1]; Virus, 3 h): > 500 µM; IC50 ([3]; Virus, 3 h): > 500 µM; CC50 at 24 h [16]: 14.5 µM; CC50 [9]: 28.1 µM
8 | NCCNC(=O)C(Cc1c[nH]c2ccccc12)NC(=O)c1cc(-c2ccccc2-c2ccccc2)ccc1N (stereo not drawn) [Sau-22] | 14.8 | > 62.5 | 11.4 | 5.34 | > 62.5 | 6.93 | 79.4 | 79.4 | 
9 | N=C(N)NCCNC(=O)C(Cc1ccccc1)NC(=O)c1cc(Br)ccc1NC(=O)c1ccc2ccccc2c1 (stereo not drawn) [compound 1091] | 5.2 | > 62.5 | 5.5 | 24.3 | > 62.5 | 23.1 | 128 | 128 | 
10 | NCCCCC(N)C(=O)NCCNC(=O)C(Cc1c[nH]c2ccccc12)NC(=O)c1cc(Br)ccc1NC(=O)c1ccc2ccccc2c1 (stereo not drawn) [NAPL] | 10.6 | > 62.5 | 10.6 | 10.5 | 59.3 | 10.5 | 112 | 112 | 
11 | N=C(N)NCCC[C@H](NC(=O)[C@H](CCCNC(=N)N)NC(=O)[C@H](CCCNC(=N)N)NC(=O)[C@H](CCCNC(=N)N)NC(=O)CNC(=O)CNC(=O)[C@H](CCCNC(=N)N)NC(=O)[C@H](CCCNC(=N)N)NC(=O)[C@H](CCCNC(=N)N)NC(=O)[C@H](CCCNC(=N)N)NC(=O)[C@H](CCCNC(=N)N)NC(=O)[C@H](CCCNC(=N)N)NC(=O)[C@H](CCCCN)NC(=O)[C@H](CCCNC(=N)N)NC(=O)[C@H](CCCCN)NC(=O)[C@H](CC(N)=O)NC(=O)[C@@H](N)CCCCN)C(=O)O [Mel4] (H-KNKRKRRRRRRGGRRRR-OH) |  |  |  |  |  |  |  |  | IC50 ([11]; 3 h): 8.6 µM; IC50 ([10]; 3 h): 47.4 µM; IC50 ([1]; Virus, 3 h): > 500 µM; IC50 ([3]; Virus, 3 h): > 500 µM; CC50 at 24 h [16]: 47.6 µM; CC50 [9]: 12.7 µM

Source: article PMC11240954 (International Journal of Molecular Sciences, 2024)
